Source: patent publication US20250152585A1, “PHARMACEUTICAL COMPOUND” (Duke Street Bio Limited, priority 2022, published 2025)
Like-named read-outs stand apart in the source and are kept apart here.

Experiments:
[1] = target: T1, N-terminally FLAG-tagged PARP2 (amino acids 1-583) (Homo sapiens, UniProt Q9UGN5); experiment: PARP2 probe displacement HTRF assay; assay type: binding; conditions: binned Kd
T1 construct: N-terminally FLAG-tagged PARP2 (amino acids 1-583)
Method: Data analysis was performed identical as for PARP1.

[2] = target: T2, full length N-terminally FLAG-tagged PARP1 (Homo sapiens, UniProt P09874); experiment: PARP1 probe displacement HTRF assay; conditions: for Kd: binned Kd, PARP1 probe displacement HTRF; for Selectivity: PARP1 over PARP2, ratio Kd (PARP2)/Kd (PARP1), probe displacement HTRF
T2 sequence (P09874 whole entry): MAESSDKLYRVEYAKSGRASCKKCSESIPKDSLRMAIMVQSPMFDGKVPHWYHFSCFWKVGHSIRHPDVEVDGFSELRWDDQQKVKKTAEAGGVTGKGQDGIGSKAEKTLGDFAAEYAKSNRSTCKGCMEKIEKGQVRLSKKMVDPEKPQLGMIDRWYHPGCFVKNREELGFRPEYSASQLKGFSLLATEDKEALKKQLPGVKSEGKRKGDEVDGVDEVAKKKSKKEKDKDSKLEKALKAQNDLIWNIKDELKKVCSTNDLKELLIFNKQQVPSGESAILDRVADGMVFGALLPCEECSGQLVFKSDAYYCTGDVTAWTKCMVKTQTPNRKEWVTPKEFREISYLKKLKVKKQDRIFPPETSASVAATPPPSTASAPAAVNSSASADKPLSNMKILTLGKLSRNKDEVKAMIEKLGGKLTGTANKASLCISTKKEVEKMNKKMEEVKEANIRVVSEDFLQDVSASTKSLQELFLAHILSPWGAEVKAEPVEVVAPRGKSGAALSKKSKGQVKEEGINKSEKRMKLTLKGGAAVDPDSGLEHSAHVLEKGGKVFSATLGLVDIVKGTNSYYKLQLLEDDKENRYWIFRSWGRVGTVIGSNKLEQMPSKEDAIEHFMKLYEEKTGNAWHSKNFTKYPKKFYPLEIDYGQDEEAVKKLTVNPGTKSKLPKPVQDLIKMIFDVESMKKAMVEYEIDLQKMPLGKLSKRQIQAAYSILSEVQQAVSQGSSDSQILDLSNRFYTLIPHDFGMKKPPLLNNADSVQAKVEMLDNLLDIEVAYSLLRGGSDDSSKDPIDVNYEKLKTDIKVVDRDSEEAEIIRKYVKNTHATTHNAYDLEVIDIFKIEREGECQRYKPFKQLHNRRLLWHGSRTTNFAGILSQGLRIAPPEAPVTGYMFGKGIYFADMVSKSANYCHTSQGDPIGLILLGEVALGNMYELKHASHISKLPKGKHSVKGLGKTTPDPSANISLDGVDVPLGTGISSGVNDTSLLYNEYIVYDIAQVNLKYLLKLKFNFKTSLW

[3] = target: T2, full length N-terminally FLAG-tagged PARP1; experiment: PARP1 biochemical DELFIA assay (auto-PARylation); design: recombinant full length human N-terminally FLAG-tagged PARP1; conditions: binned IC50, PARP1 biochemical DELFIA assay

T1 sequence (Q9UGN5 whole entry, the tested form may be a part): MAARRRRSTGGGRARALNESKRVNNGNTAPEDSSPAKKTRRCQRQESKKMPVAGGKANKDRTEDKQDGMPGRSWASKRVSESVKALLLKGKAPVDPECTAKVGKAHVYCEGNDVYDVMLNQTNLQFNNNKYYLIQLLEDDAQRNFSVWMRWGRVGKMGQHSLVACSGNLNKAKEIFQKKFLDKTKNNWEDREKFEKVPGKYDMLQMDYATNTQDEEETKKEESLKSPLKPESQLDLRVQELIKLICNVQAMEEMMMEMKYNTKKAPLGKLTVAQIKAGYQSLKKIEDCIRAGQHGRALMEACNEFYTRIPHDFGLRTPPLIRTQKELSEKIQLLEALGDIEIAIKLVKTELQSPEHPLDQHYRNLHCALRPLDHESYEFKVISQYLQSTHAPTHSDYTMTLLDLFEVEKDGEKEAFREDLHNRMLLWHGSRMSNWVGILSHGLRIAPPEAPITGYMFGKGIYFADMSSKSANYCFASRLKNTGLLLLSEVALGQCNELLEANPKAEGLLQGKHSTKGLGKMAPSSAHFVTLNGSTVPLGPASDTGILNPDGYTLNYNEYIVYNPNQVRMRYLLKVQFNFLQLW

Kd ([1]; PARP2 probe displacement HTRF) [µM]	Kd ([2]; PARP1 HTRF) [µM]	IC50 [3] [µM]	Kd ([2]; read-out: PARP1 HTRF) [µM]	Kd ([1]; probe displacement HTRF) [µM]	Structure (SMILES)	Selectivity [2]
1 to 10	–	–	< 0.01	–	CNC(=O)c1ccc(N2CCC(N3CCCC(c4nc5ccc(F)cc5c(=O)[nH]4)C3)CC2)cn1 (single isomer, unassigned) [Compound 78a]	+++ (+++ indicate a value of at least 100)
1 to 10	–	–	0.1 to 1	–	CNC(=O)c1ccc(N2CCC(N3CCC(c4nc5c(C(F)(F)F)cccc5c(=O)[nH]4)C3)CC2)cn1 (single isomer, unassigned) [Compound 178a]	− (− indicates a value of less than 10)
1 to 10	–	–	0.1 to 1	–	CNC(=O)c1ccc(N2CCC(N3CCC(c4nc5cc(Cl)ccc5c(=O)[nH]4)C3)CC2)cn1 (single isomer, unassigned) [Compound 87a]	+ (+ indicates a value of 10 to less than 50)
> 10	–	–	0.01 to 0.1	–	CNC(=O)c1ccc(N2CCC(N3CCC(c4nc5cccnc5c(=O)[nH]4)C3)CC2)cn1 (single isomer, unassigned) [Compound 77b]	+++ (+++ indicate a value of at least 100)
–	–	0.1 to 1	–	–	O=c1[nH]c(C2CCN(C3CCN(c4ccccc4)CC3)C2)nc2ccccc12 (single isomer, unassigned) [Compound 32b]	–
1 to 10	–	–	< 0.01	–	CNC(=O)c1ccc(N2CCC(N3CCCC(c4nc5cccc(F)c5c(=O)[nH]4)C3)CC2)cn1 (single isomer, unassigned) [Compound 88b]	+++ (+++ indicate a value of at least 100)
> 10	–	–	0.01 to 0.1	–	CNC(=O)c1ccc(N2CCC(N3CCC(c4nc5ccncc5c(=O)[nH]4)C3)CC2)cn1 (single isomer, unassigned) [Compound 81b]	+++ (+++ indicate a value of at least 100)
0.1 to 1	–	–	0.1 to 1	–	CNC(=O)c1ccc(N2CCC(N3CCCC(c4nc5cccc(F)c5c(=O)[nH]4)C3)CC2)cn1 (single isomer, unassigned) [Compound 88a]	− (− indicates a value of less than 10)
–	–	0.1 to 1	–	–	CNC(=O)c1ccc(N2CCC(N3CCC(c4nc5ccccc5c(=O)[nH]4)CC3)CC2)cn1 [Compound 1]	–
–	–	0.1 to 1	–	–	CNC(=O)c1ccc(N(C)CCCN2CCCC(c3nc4ccccc4c(=O)[nH]3)C2)cn1 (single isomer, unassigned) [Compound 16a]	–
> 10	–	–	0.01 to 0.1	–	CNC(=O)c1ccc(N2CCC(N3CCCC(c4nc5ccccc5c(=O)[nH]4)C3)CC2)cc1 (single isomer, unassigned) [Compound 82b]	++ (++ indicates a value of 50 to less than 100)
0.1 to 1	–	–	0.01 to 0.1	–	CNC(=O)c1ccc(N2CCC(N3CCCC(c4nc5ccccc5c(=O)[nH]4)C3)CC2)cc1 (single isomer, unassigned) [Compound 82a]	− (− indicates a value of less than 10)
> 10	–	–	0.1 to 1	–	CNC(=O)c1ccc(N2CCC(N3CCC(c4nc5onc(C(F)(F)F)c5c(=O)[nH]4)C3)CC2)cn1 (racemic) [Compound 176rac]	+ (+ indicates a value of 10 to less than 50)
> 10	–	–	0.1 to 1	–	CNC(=O)c1ccc(N2CCC(N3CCC(c4nc5cccnc5c(=O)[nH]4)C3)CC2)cn1 (single isomer, unassigned) [Compound 77a]	+ (+ indicates a value of 10 to less than 50)
–	–	–	–	1 to 10	CNC(=O)c1ccc(N2CCC(N3CCC(c4cc5c(F)cncc5c(=O)[nH]4)C3)CC2)c(F)n1 (single isomer, unassigned) [Compound 343b, 6-fluoro-5-(4-(3-(5-fluoro-1-oxo-1,2-dihydro-2,7-naphthyridin-3-yl)pyrrolidin-1-yl)piperidin-1-yl)-N-methylpicolinamide]	–
> 10	–	–	< 0.01	–	CNC(=O)c1ccc(N2CCC(N3CCC(c4cc5ccc(C(F)(F)F)cc5c(=O)[nH]4)C3)CC2)cn1 (racemic) [Compound 177rac]	+++ (+++ indicate a value of at least 100)
> 10	–	–	0.01 to 0.1	–	CNC(=O)c1ccc(N2CCC(N3CCC(c4nc5cnccc5c(=O)[nH]4)C3)CC2)cn1 (single isomer, unassigned) [Compound 84b]	++ (++ indicates a value of 50 to less than 100)
> 10	–	–	0.1 to 1	–	CNC(=O)c1ccc(N2CCC(N3CCC(c4nc5ccncc5c(=O)[nH]4)C3)CC2)cn1 (single isomer, unassigned) [Compound 81a]	+ (+ indicates a value of 10 to less than 50)
0.1 to 1	–	–	0.01 to 0.1	–	CNC(=O)c1ccc(N2CCC(N3CCC(c4nc5cccc(Cl)c5c(=O)[nH]4)C3)CC2)cn1 (single isomer, unassigned) [Compound 85a]	+ (+ indicates a value of 10 to less than 50)
1 to 10	–	–	0.1 to 1	–	CNC(=O)c1ccc(N2CCC(N3CCCC(c4nc5ccccc5c(=O)[nH]4)C3)CC2)nc1 (single isomer, unassigned) [Compound 83a]	− (− indicates a value of less than 10)
< 0.01	–	–	0.01 to 0.1	–	O=c1[nH]c(C2CCN(C3CCN(c4ccc(-c5ncc[nH]5)cc4)CC3)C2)nc2ccccc12 (single isomer, unassigned) [Compound 76b]	− (− indicates a value of less than 10)
0.1 to 1	–	–	< 0.01	–	CNC(=O)c1ccc(N2CCC(N3CCC(c4nc5ccccc5c(=O)[nH]4)C3)CC2)cc1 (single isomer, unassigned) [Compound 80a]	+++ (+++ indicate a value of at least 100)

The next lines start with the compound.

Structure (SMILES)	Kd ([1]; PARP2 probe displacement HTRF) [µM]	Kd ([2]; PARP1 HTRF) [µM]	IC50 [3] [µM]	Kd ([2]; read-out: PARP1 HTRF) [µM]	Kd ([1]; probe displacement HTRF) [µM]	Selectivity [2]
CNC(=O)c1ccc(N2CCC(CN3CCC(c4ncc(C(F)(F)F)c(=O)[nH]4)CC3)CC2)cn1 [Compound 75]	> 10	1 to 10	–	–	–	− (− indicates a value of less than 10)
CNC(=O)c1ccc(N(C)CCCN2CCCC(c3nc4ccccc4c(=O)[nH]3)C2)cn1 (single isomer, unassigned) [Compound 16b]	–	–	0.1 to 1	–	–	–
CNC(=O)c1ccc(N2CCC(N3CCC4CC4(c4nc5ccccc5c(=O)[nH]4)C3)CC2)cn1 (single isomer, unassigned) [Compound 90a]	> 10	–	–	0.1 to 1	–	+ (+ indicates a value of 10 to less than 50)
CNC(=O)c1ccc(N2CCC(N3CCCC(c4nc5ccc(F)cc5c(=O)[nH]4)C3)CC2)cn1 (single isomer, unassigned) [Compound 78b]	0.1 to 1	–	–	0.01 to 0.1	–	+ (+ indicates a value of 10 to less than 50)
CNC(=O)c1ccc(N2CCC(N3CCCC(c4nc5cccnc5c(=O)[nH]4)C3)CC2)cn1 (single isomer, unassigned) [Compound 89b]	> 10	–	–	0.1 to 1	–	+ (+ indicates a value of 10 to less than 50)
CNC(=O)c1ccc(N2CCC(N3CCC(c4nc5cnccc5c(=O)[nH]4)C3)CC2)cn1 (single isomer, unassigned) [Compound 84a]	> 10	–	–	1 to 10	–	− (− indicates a value of less than 10)
CNC(=O)c1ccc(N2CCC(N3CCC4CC4(c4nc5ccccc5c(=O)[nH]4)C3)CC2)cn1 (single isomer, unassigned) [Compound 90b]	1 to 10	–	–	0.1 to 1	–	+ (+ indicates a value of 10 to less than 50)
CNC(=O)c1ccc(N2CCC(N3CCC(c4nc5ccccc5c(=O)[nH]4)C3)CC2)cc1 (single isomer, unassigned) [Compound 80b]	0.1 to 1	–	–	0.1 to 1	–	− (− indicates a value of less than 10)
CCN1CCCc2c1nc(C13CC(C1)N(C1CCN(c4ccc(C(=O)NC)nc4)CC1)C3)[nH]c2=O [Compound 383]	–	–	–	–	0.1 to 1	–
O=c1[nH]c(C2CCN(C3CCN(c4ccc(-c5ncc[nH]5)cc4)CC3)C2)nc2ccccc12 (single isomer, unassigned) [Compound 76a]	0.1 to 1	–	–	0.01 to 0.1	–	− (− indicates a value of less than 10)
CNC(=O)c1ccc(N2CCC(N3CCC(c4nc5c(C(F)(F)F)cccc5c(=O)[nH]4)C3)CC2)cn1 (single isomer, unassigned) [Compound 178b]	1 to 10	–	–	< 0.01	–	+++ (+++ indicate a value of at least 100)
CNC(=O)c1ccc(N2CCC(N3CCCC(c4nc5cccnc5c(=O)[nH]4)C3)CC2)cn1 (single isomer, unassigned) [Compound 89a]	> 10	–	–	> 10	–	− (− indicates a value of less than 10)
CNC(=O)c1ccc(N2CCC(N3CCC(c4nc5cc(Cl)ccc5c(=O)[nH]4)C3)CC2)cn1 (single isomer, unassigned) [Compound 87b]	1 to 10	–	–	< 0.01	–	+++ (+++ indicate a value of at least 100)
N#Cc1ccc(N2CCC(N3CCCC(c4nc5ccccc5c(=O)[nH]4)C3)CC2)cc1 (single isomer, unassigned) [Compound 79b]	0.1 to 1	–	–	0.01 to 0.1	–	+ (+ indicates a value of 10 to less than 50)
CNC(=O)c1ccc(N2CCC(N3CCCC(c4nc5ccccc5c(=O)[nH]4)C3)CC2)nc1 (single isomer, unassigned) [Compound 83b]	> 10	–	–	0.1 to 1	–	+ (+ indicates a value of 10 to less than 50)
N#Cc1ccc(N2CCC(N3CCCC(c4nc5ccccc5c(=O)[nH]4)C3)CC2)cc1 (single isomer, unassigned) [Compound 79a]	0.1 to 1	–	–	0.01 to 0.1	–	+ (+ indicates a value of 10 to less than 50)
